We go through one compound from US4795751A, “5-substituted-6,8-difluoroquinolines useful as antibacterial agents” (Dainippon Pharmaceutical Co., Ltd., priority 1985, dated 1989).

≈ marks a conversion by molar mass, not a printed value.

Assay [1] has as its system Streptococcus pneumoniae 1 Neufeld. The experiment in a line: In vivo efficacy against systemic infections in mice. Set-up: species or system Streptococcus pneumoniae; male mice (ddY-S). The conditions noted are these: 336 h, oral, intraperitoneal infection 3×10^3 cells, four times, immediately, 6, 24 and 30 h after infection, 14 days, calculated for free base, read-out: median effective dose (ED50). The procedure:
Compounds were each dissolved in deionized water. Each of the solutions was orally administered to mice infected with each of the test organisms under the conditions shown hereinbelow, and the median effective dose (ED50) was calculated by probit analysis. The numerals in the table show ED50 (mg/kg) value, calculated for free base.
Mice: Male mice (ddY-S) weighing about 20 g
Streptococcus pneumoniae 1 Neufeld
Intraperitoneal infection with 3×10^3 cells per mouse suspended in brain heart infusion broth.
Four times, immediately, 6, 24 and 30 hours after infection in case of Streptococcus pneumoniae 1 Neufeld. Twice, immediately and 6 hours after infection in case of other organisms.
For 14 days in case of Staphylococcus aureus 50774 and Streptocuccus pneumoniae 1 Neufeld. For 7 days in case of other organisms.

The test system of another assay is Campylobacter jejuni 12. The assay is described as follows: Antibacterial activity against Campylobacter jejuni, twofold agar-dilution method. The format is cell-based. The conditions noted are these: strain 12, blood-containing Mueller-Hinton agar, 48 h, 37° C. microaerobically, calculated for free base, read-out: minimum inhibitory concentration (MIC). The procedure:
(§1) The numbers in the table show minimum inhibitory concentrations (MIC) (μg/ml), calculated for free base. The minimum inhibitory concentration was determined by the twofold agar-dilution method using blood-containing Mueller-Hinton agar. One loopful of a culture of test organisms in Mueller-Hinton broth was inoculated onto 10-ml drug-containing agar layer in petri dishes. Bacterial growth was observed after 48-hour incubation at 37° C. microaerobically. The MIC was defined as the lowest drug concentration which prevented visible bacterial growth.

A further assay relates to Campylobacter jejuni 170. Described as above. The format is cell-based. The conditions noted are these: strain 170, blood-containing Mueller-Hinton agar, 48 h, 37° C. microaerobically, calculated for free base, read-out: minimum inhibitory concentration (MIC). The procedure:
as §1

For assay [2], the system named is Campylobacter jejuni A-11-3. The description is as above. The conditions noted are these: A113, strain A-11-3, blood-containing Mueller-Hinton agar, 48 h, 37° C. microaerobically, calculated for free base, read-out: minimum inhibitory concentration (MIC). The format is cell-based. The procedure: as §1
The subject of assay [3] is Campylobacter jejuni A-19-3. Described as above. The format is cell-based. The conditions noted are these: A193, strain A-19-3, blood-containing Mueller-Hinton agar, 48 h, 37° C. microaerobically, calculated for free base, read-out: minimum inhibitory concentration (MIC). The procedure: as §1
Assay [4] relates to Campylobacter jejuni 19804. Described as above. The conditions noted are these: strain 19804, blood-containing Mueller-Hinton agar, 48 h, 37° C. microaerobically, calculated for free base, read-out: minimum inhibitory concentration (MIC). The assay is classed as cell-based. Here is the method: as §1
Assay [5] concerns Campylobacter jejuni 19807. Described as above. The format is cell-based. The conditions noted are these: strain 19807, blood-containing Mueller-Hinton agar, 48 h, 37° C. microaerobically, calculated for free base, read-out: minimum inhibitory concentration (MIC). Here is the method:
as §1

For assay [6], the system named is Campylobacter jejuni 19806. Described as above. The assay is classed as cell-based. The conditions noted are these: strain 19806, blood-containing Mueller-Hinton agar, 48 h, 37° C. microaerobically, calculated for free base, read-out: minimum inhibitory concentration (MIC). Here is the method: as §1
A further assay relates to Campylobacter jejuni 77. The description is as above. The format is cell-based. The conditions noted are these: strain 77, blood-containing Mueller-Hinton agar, 48 h, 37° C. microaerobically, calculated for free base, read-out: minimum inhibitory concentration (MIC). Here is the method: as §1
Assay [7] concerns Campylobacter jejuni 19805. The description is as above. The assay is classed as cell-based. The conditions noted are these: strain 19805, blood-containing Mueller-Hinton agar, 48 h, 37° C. microaerobically, calculated for free base, read-out: minimum inhibitory concentration (MIC). Here is the method: as §1
A further assay deals with Campylobacter jejuni 20. The assay is described as above. The assay is classed as cell-based. The conditions noted are these: strain 20, blood-containing Mueller-Hinton agar, 48 h, 37° C. microaerobically, calculated for free base, read-out: minimum inhibitory concentration (MIC). Here is the method: as §1
The subject of assay [8] is Campylobacter jejuni A-24-2. The description is as above. The conditions noted are these: A242, strain A-24-2, blood-containing Mueller-Hinton agar, 48 h, 37° C. microaerobically, calculated for free base, read-out: minimum inhibitory concentration (MIC). The assay is classed as cell-based. Here is the method:
as §1

The subject of the next assay is M. buccale CH-20247. The experiment in a line: Anti-Mycoplasma activity, twofold agar-dilution method. The assay is classed as cell-based. The conditions noted are these: 48 h, Chanock agar, 37° C., 2 days anaerobically, calculated for free base, read-out: minimum inhibitory concentration (MIC). The procedure:
(§2) The numbers in the table show minimum inhibitory concentrations (MIC) (μg/ml), calculated for free base. The minimum inhibitory concentration was determined by the twofold agar-dilution method using Chanock agar. Three μl of a culture of test organisms in Chanock broth was inoculated onto 10-ml drug-containing agar layers in petri dishes. Growth of Mycoplasma was observed after incubation at 37° C. under the conditions shown hereinbelow. The MIC was defined as the lowest drug concentration which prevented growth of Mycoplasma microscopically.

In the next assay the test system is M. orale CH-19299. The description is as above. The assay is classed as cell-based. The conditions noted are these: 48 h, Chanock agar, 37° C., 2 days anaerobically, calculated for free base, read-out: minimum inhibitory concentration (MIC). The procedure: as §2
The next assay has as its system M. fermentans PG-18. Described as above. The format is cell-based. The conditions noted are these: Mycoplasmopsis fermentans, PG18, 48 h, Chanock agar, 37° C., 2 days anaerobically, calculated for free base, read-out: minimum inhibitory concentration (MIC). Here is the method: as §2
A further assay concerns M. hominis PG-21. Described as above. The assay is classed as cell-based. The conditions noted are these: Metamycoplasma hominis, PG21, 48 h, Chanock agar, 37° C., 2 days anaerobically, calculated for free base, read-out: minimum inhibitory concentration (MIC). Here is the method:
as §2

A further assay relates to M. salivarium. Described as above. The format is cell-based. The conditions noted are these: 48 h, read-out: minimum inhibitory concentration (MIC). Here is the method: as §2
For another assay, the system named is M. hyorhinis BST-7. The assay is described as above. The assay is classed as cell-based. The conditions noted are these: Mesomycoplasma hyorhinis, BST7, 72 h, Chanock agar, 37° C., 3 days aerobically, calculated for free base, read-out: minimum inhibitory concentration (MIC). The procedure:
as §2

The test system of another assay is M. pneumoniae Mac. Described as above. The conditions noted are these: Mycoplasmoides pneumoniae, 168 h, Chanock agar, 37° C., 7 days aerobically, calculated for free base, read-out: minimum inhibitory concentration (MIC). The format is cell-based. The procedure: as §2
For another assay, the system named is A. laidlawii PG-8. Described as above. The format is cell-based. The conditions noted are these: Acholeplasma laidlawii, PG8, 48 h, Chanock agar, 37° C., 2 days aerobically, calculated for free base, read-out: minimum inhibitory concentration (MIC). Here is the method: as §2
(§3) Mycoplasma arginini and Acholeplasma laidlawii

The next assay relates to M. arginini G-230. The assay is described as above. The assay is classed as cell-based. The conditions noted are these: Mycoplasmopsis arginini, G230, 48 h, Chanock agar, 37° C., 2 days aerobically, calculated for free base, read-out: minimum inhibitory concentration (MIC). The procedure: as §2, §3

As for `CC1CN(c2c(F)c(N)c3c(=O)c(C(=O)O)cn(C4CC4)c3c2F)CCN1` (stereo not drawn) [Compound 1, 5-Amino-1-cyclopropyl-6,8-difluoro-7-(3-methyl-1-piperazinyl)-1,4-dihydro-4-oxoquinoline-3-carboxylic acid], in [1], the 50% effective dose (ED50) was 10.9 mg/kg. Besides, the MIC in the assay on Campylobacter jejuni 12 is 0.0125 mg/L (≈ 0.033 µM); in the assay with Campylobacter jejuni 170 it was 0.0125 mg/L (≈ 0.033 µM); in assay [2], 0.05 mg/L (≈ 0.132 µM); in [3] it was 0.05 mg/L (≈ 0.132 µM); in [4], 0.0125 mg/L (≈ 0.033 µM); in [5], 0.0125 mg/L (≈ 0.033 µM). The MIC was 0.0125 mg/L (≈ 0.033 µM) in [6]; 0.0125 mg/L (≈ 0.033 µM) in the assay on Campylobacter jejuni 77; 0.0125 mg/L (≈ 0.033 µM) in [7]; 0.0063 mg/L (≈ 0.0166 µM) in the assay with Campylobacter jejuni 20; 0.05 mg/L (≈ 0.132 µM) in [8]; 0.0125 mg/L (≈ 0.033 µM) in the assay on M. buccale CH-20247. Also, the MIC with M. orale CH-19299 was 0.2 mg/L (≈ 0.529 µM); in the assay with M. fermentans PG-18, 0.0063 mg/L (≈ 0.0166 µM); in the assay on M. hominis PG-21 it was 0.05 mg/L (≈ 0.132 µM); in the assay with M. salivarium, 0.2 mg/L (≈ 0.529 µM); in the assay on M. hyorhinis BST-7 it was 0.2 mg/L (≈ 0.529 µM); in the assay on M. pneumoniae Mac it was 0.025 mg/L (≈ 0.0661 µM). Moreover, the MIC with A. laidlawii PG-8 and with M. arginini G-230 was 0.1 mg/L (≈ 0.264 µM) each time.

The term ED50 denotes the dose at which the effect has come halfway, by size or by number of responders.
